Results reported in US8093251B2, “Nitrogen-containing heterocyclic compounds and thrombopoietin receptor activators” (Nissan Chemical Industries, Ltd., priority 2006, dated 2012).

Target: T1, human thrombopoietin receptor (c-mpl) (Homo sapiens, UniProt P40238)
T1 construct: expressed in transfected cells
T1 sequence (P40238 26-635): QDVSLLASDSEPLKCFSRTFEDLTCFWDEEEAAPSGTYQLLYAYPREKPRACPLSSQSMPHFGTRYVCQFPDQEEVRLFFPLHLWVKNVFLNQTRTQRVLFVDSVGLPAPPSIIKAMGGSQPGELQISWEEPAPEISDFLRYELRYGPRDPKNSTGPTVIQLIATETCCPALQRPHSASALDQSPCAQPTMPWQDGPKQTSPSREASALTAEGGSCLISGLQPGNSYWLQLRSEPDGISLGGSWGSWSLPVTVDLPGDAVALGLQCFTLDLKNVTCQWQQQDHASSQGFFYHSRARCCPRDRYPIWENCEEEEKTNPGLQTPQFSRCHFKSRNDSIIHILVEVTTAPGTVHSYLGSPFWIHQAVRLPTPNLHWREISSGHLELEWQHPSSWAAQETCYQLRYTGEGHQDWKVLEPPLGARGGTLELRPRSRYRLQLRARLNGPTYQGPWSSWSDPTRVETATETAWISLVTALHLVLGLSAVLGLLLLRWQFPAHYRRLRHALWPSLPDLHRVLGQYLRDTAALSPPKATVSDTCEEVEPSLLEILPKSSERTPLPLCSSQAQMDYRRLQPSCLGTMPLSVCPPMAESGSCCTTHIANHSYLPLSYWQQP
Test: Stimulation of proliferation of thrombopoietin-dependent cell line UT7/EPO-mpl (WST-8)
Format: cell-based
Conditions: human leukemic cell line UT-7/EPO-mpl, 4 days incubation, WST-8, absorbance at 450 nm; read-out: EC50 (concentration that yields a growth rate corresponding to 50% of the growth observed in the presence of 10 ng/mL TPO) (converted)
Description: The responses of thrombopoietin receptor to the compounds of the present invention prepared in the Synthetic Examples were assayed using a human leukemic cell line, UT7/EPO-mpl.
UT7/EPO-mpl is a stable transformed cell line obtained by introducing into human leukemic cell line UT7/EPO a vector that induces expression of human thrombopoietin receptor (c-mpl) under control of cytomegalovirus immediate-early promoter by the method of Takatoku et al. (J. Biol. Chem., 272:7259-7263 (1997)). […] These two cell lines were subcultured in IMDM (GIBCO) containing 10% fetal bovine serum (Thermo Electron or BioWest) using a CO2 incubator (5% CO2, 37° C.).
The subcultured cells described above were washed twice with PBS and suspended in IMDM containing 10% fetal bovine serum at a cell density of 6×10^4 cells/ml. The cell suspension was transferred to a 96-well tissue culture plate (CORNING) in 100-μl aliquots. Then either thrombopoietin (Pepro Tech EC) or the compounds of the Synthetic Examples dissolved in dimethyl sulfoxide were diluted 83-fold with IMDM containing 10% fetal bovine serum and added to the aforementioned cell suspension in 20-μl aliquots. The cell suspension was incubated in a CO2 incubator (5% CO2, 37° C.) for 4 days. […] The formazan pigment generated was detected by measuring the absorbance at 450 nm with a 96-well microplate reader (Nihon Molecular Devices, Spectramax 190). […]

CCOC(=O)CN1CCN(C(=S)NNC(C)=C2C(=O)N(c3ccc(C(C)(C)C)cc3)N=C2C)CC1 [Example 7]
EC50: 71.9 nM
